The source of these data is PubChem BioAssay (NCI).

Structures are written as SMILES. “And” between values parts separate entries of the source, which are not always exact repeats. Equal entries are not always repeated.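 Tested at 5 concentrations; 48 h exposure; 96-well plates; endpoints linearly interpolated, else capped at highest concentration. At the GI50, growth is halved. TGI marks complete inhibition of growth.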 Bounds are passed on as bounds.

Among the test systems are COLO 205 colon; EKVX NSCLC; HCC-2998 colon; KM12 colon; M14 melanoma; NCI-H460 lung; RPMI-8226 leukemia; SNB-75 CNS; UACC-62 melanoma; SK-MEL-5 melanoma.
Test in all cases: DTP human tumour cell line panel, 48 h

Broadly, the TGI is the concentration giving total growth inhibition. Read a high TGI as lower sensitivity of the cells. With `COCC(O)Cn1ccnc1[N+](=O)[O-]` (stereo unspecified), the TGI in the test with COLO 205 colon, in the test on EKVX NSCLC, in the test on HCC-2998 colon, in the test with KM12 colon, in the test with M14 melanoma and with NCI-H460 lung was over 100 µM each time. The compound also gave a TGI in the test on RPMI-8226 leukemia of over 100 µM.

On to `c1ccc(CN2CCC3(CC2)SSC2(CCN(Cc4ccccc4)CC2)S3)cc1`, for which the TGI is 33.3 µM in the test with COLO 205 colon; 93.6 µM in the test with HCC-2998 colon; over 100 µM with KM12 colon; over 100 µM in the test on M14 melanoma; 84.6 µM in the test with NCI-H460 lung; 98.4 µM in the test on RPMI-8226 leukemia. For the same compound, the TGI in the test with SNB-75 CNS and in the test with UACC-62 melanoma was over 100 µM in each case.

As usually defined, the GI50 is the concentration at which growth is held to half of that of the control. In the case of `COc1ccc(-c2nc(/C=N/Nc3cc(C)nc4ccc(Cl)cc34)c(C)o2)cc1`, the GI50 with COLO 205 colon was 1.63 µM; in the test on EKVX NSCLC it was 1.82 µM; in the test with HCC-2998 colon it was 1.85 µM; with KM12 colon it was 1.79 µM; in the test with M14 melanoma, 1.74 µM; in the test with NCI-H460 lung, 1.85 µM. Besides, the GI50 with SK-MEL-5 melanoma was 1.77 µM; with SNB-75 CNS, 1.44 µM; in the test on UACC-62 melanoma, 1.8 µM. Further, the TGI in the test on COLO 205 colon worked out at 3.18 µM; in the test with EKVX NSCLC it was 3.29 µM; in the test with HCC-2998 colon it was 3.39 µM; in the test with KM12 colon, 3.49 µM; with M14 melanoma, 3.36 µM; in the test with NCI-H460 lung, 3.49 µM. The TGI with SK-MEL-5 melanoma is 3.17 µM; with SNB-75 CNS, 2.93 µM; in the test on UACC-62 melanoma it was 3.37 µM.

Regarding `COC1OC(CBr)C(OC(=O)c2ccccc2)C(O)C1Br` (stereo unspecified), the TGI in the test on COLO 205 colon, with HCC-2998 colon, in the test with KM12 colon, with M14 melanoma, in the test with NCI-H460 lung and with RPMI-8226 leukemia was over 100 µM in each case. Also, the TGI in the test on SK-MEL-5 melanoma and with UACC-62 melanoma was over 100 µM each time.

For the compound `C#CC1(O)C(COP(=O)(O)OC(COCCCCCCCCCCCCCCCCCC)COP(=O)(O)OCC2OC(n3cc(F)c(=O)[nH]c3=O)CC2O)OC(n2ccc(N)nc2=O)C1O` (stereo unspecified), the TGI in the test on COLO 205 colon was 1.99 µM and 6.07 µM; in the test with EKVX NSCLC, > 35.2 µM and 71.4 µM; in the test with HCC-2998 colon, over 28.4 µM; with KM12 colon, > 49.8 µM and 17 µM; in the test on M14 melanoma, 24.3 µM and 2.74 µM; in the test on NCI-H460 lung, 15.3 µM and 15.1 µM. For the same compound, the TGI was 18.7 µM and 30.2 µM in the test with SNB-75 CNS; 11.8 µM and 7.46 µM with UACC-62 melanoma. Besides, the GI50 is 1.42 µM and 5.06 µM in the test with EKVX NSCLC; 1.53 µM and 0.218 µM with M14 melanoma; 0.343 µM and 0.975 µM with SNB-75 CNS.

On to `CC(=O)C(=Cc1ccc(C=C(C(C)=O)C(C)=O)cc1)C(C)=O`, for which the TGI in the test on COLO 205 colon was determined as 3.33 µM; in the test with EKVX NSCLC, 8.76 µM; in the test with HCC-2998 colon it was 7.66 µM; in the test with KM12 colon, 6.18 µM; in the test with M14 melanoma it was 3.59 µM; with NCI-H460 lung it was 7.38 µM. Besides, the TGI worked out at 1.71 µM in the test on RPMI-8226 leukemia, 3.36 µM in the test on SK-MEL-5 melanoma and 4.02 µM in the test on UACC-62 melanoma.

With `O=c1oc(Cl)c(Cl)c2ccccc12`, the GI50 with COLO 205 colon is 22.8 µM; in the test on EKVX NSCLC, 18.8 µM; with HCC-2998 colon it was 44.3 µM; in the test on KM12 colon, 35.8 µM; in the test on M14 melanoma, 41.3 µM; with NCI-H460 lung, 55.5 µM. The GI50 in the test on SK-MEL-5 melanoma is 16.5 µM; in the test on SNB-75 CNS, 24.7 µM; in the test with UACC-62 melanoma it was 32.9 µM. Besides, the TGI with COLO 205 colon is 63.7 µM; in the test on EKVX NSCLC, 44.3 µM; with HCC-2998 colon, 73.9 µM; in the test with KM12 colon, over 100 µM; with M14 melanoma, over 100 µM; with NCI-H460 lung, over 100 µM. Further, the TGI with SK-MEL-5 melanoma is 37 µM; in the test with SNB-75 CNS it was 59.3 µM; in the test on UACC-62 melanoma it was over 100 µM.

With `COc1ccc(/C=C/C(=O)c2ccc(O)c(CN3CCN(c4cc5c(cc4F)c(=O)c(C(=O)O)cn5C4CC4)CC3)c2)cc1`, the GI50 is 11.8 µM with COLO 205 colon; 8.35 µM with EKVX NSCLC; 4.15 µM with HCC-2998 colon; 1.27 µM in the test on KM12 colon; 1.13 µM in the test on M14 melanoma; 6.08 µM in the test on NCI-H460 lung. In addition, the results for the GI50 with SK-MEL-5 melanoma, in the test on SNB-75 CNS and with UACC-62 melanoma were 1.57 µM, 0.726 µM and 1.32 µM, respectively. Besides, the TGI in the test on COLO 205 colon was 33.4 µM; in the test on EKVX NSCLC, over 100 µM; in the test with HCC-2998 colon it was over 100 µM; in the test on KM12 colon, over 100 µM; in the test with M14 melanoma, over 100 µM; with NCI-H460 lung it was over 100 µM. The TGI was over 100 µM in the test on SK-MEL-5 melanoma, 6.86 µM with SNB-75 CNS and over 100 µM in the test on UACC-62 melanoma.

Take `CCN(CC)CCOc1ccc(CCc2cc(OC)c(OC)c(OC)c2)cc1`: the TGI in the test on COLO 205 colon was 31 µM; with EKVX NSCLC it was over 100 µM; with KM12 colon it was over 100 µM; with M14 melanoma it was 34.3 µM; in the test on NCI-H460 lung, over 100 µM; in the test on RPMI-8226 leukemia, 51.5 µM. The TGI came to 29.7 µM in the test on SK-MEL-5 melanoma, 94.5 µM in the test with SNB-75 CNS and 66.3 µM in the test on UACC-62 melanoma.

For the compound `Cc1ccc(SSc2ccc(C)cc2C(=O)O)c(C(=O)O)c1`, the TGI with COLO 205 colon, with EKVX NSCLC, in the test with KM12 colon, in the test with NCI-H460 lung, in the test on SK-MEL-5 melanoma and in the test on UACC-62 melanoma was over 100 µM throughout.

As to `O=C1NC2(CCCCCC2)C2CCCCCCC12O` (stereo unspecified), the TGI in the test on COLO 205 colon, in the test with EKVX NSCLC, in the test with KM12 colon, in the test on M14 melanoma, with NCI-H460 lung and in the test on SK-MEL-5 melanoma was over 100 µM each time. In addition, the TGI in the test with SNB-75 CNS and in the test with UACC-62 melanoma was over 100 µM each time.

Take `CCOC(=O)c1c2c(n(Cc3ccc(Cl)cc3Cl)c1C)-c1nc[nH]c1C(=O)C2=O`: the GI50 in the test on COLO 205 colon was 17.4 µM; in the test with EKVX NSCLC, 13 µM; in the test with KM12 colon, 5.87 µM; in the test with M14 melanoma it was 14.7 µM; in the test with NCI-H460 lung, 4.79 µM; in the test with RPMI-8226 leukemia, 2.5 µM. For the same compound, the GI50 in the test on SK-MEL-5 melanoma was 13 µM; in the test on SNB-75 CNS, 1.99 µM. The TGI was 32.1 µM in the test with COLO 205 colon; 27.4 µM in the test on EKVX NSCLC; 19.4 µM with KM12 colon; 27.8 µM with M14 melanoma; 15.9 µM in the test with NCI-H460 lung; 6.03 µM in the test on RPMI-8226 leukemia. For the same compound, the TGI in the test with SK-MEL-5 melanoma worked out at 25.7 µM; with SNB-75 CNS, 9.62 µM.
